Assay results reported in the supplement of paper PMC10307832.

Columns and labels:
Experiment in all cases: relative viability (nuclei count vs DMSO), 5 days (fraction); higher = more cells survive
[1] = compound: C(C(=O)C(=O)O)Br [Bromopyruvate] + C[C@]1(O)C[C@@H](c2nc(-c3ccc4ccc(-c5ccccc5)nc4c3)c3c(N)nccn32)C1 [Linsitinib] (partner 1 µM)
How it was run: (§1)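 Five library-drug doses in √10 steps were combined with a fixed anchor-drug dose, or a single drug was given alone, by pin tool to lung cancer cell lines in 1536-well plates the day after seeding. Nuclei were stained and counted after 5 days. Relative viability is the nuclei count in treated wells over that in vehicle wells, taken as the median of duplicate plates.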

[2] = compound: CC(O)(CS(=O)(=O)c1ccc(F)cc1)C(=O)Nc1ccc(C#N)c(C(F)(F)F)c1 [Bicalutamide] + C[C@@H](Oc1cc(-c2cnn(C3CCNCC3)c2)cnc1N)c1c(Cl)ccc(F)c1Cl [Crizotinib] (partner 1 µM)
How it was run: as §1

[3] = compound: CC(O)(CS(=O)(=O)c1ccc(F)cc1)C(=O)Nc1ccc(C#N)c(C(F)(F)F)c1 [Bicalutamide] + Nc1nc2[nH]cc(CCc3ccc(C(=O)N[C@@H](CCC(=O)O)C(=O)O)cc3)c2c(=O)[nH]1 [Pemetrexed] (partner 0.2 µM)
How it was run: as §1

Bicalutamide + Olaparib = compound: CC(O)(CS(=O)(=O)c1ccc(F)cc1)C(=O)Nc1ccc(C#N)c(C(F)(F)F)c1 [Bicalutamide] + O=C(c1cc(Cc2n[nH]c(=O)c3ccccc23)ccc1F)N1CCN(C(=O)C2CC2)CC1 [Olaparib] (partner 8 µM)
How it was run: as §1

Cell Line | relative viability ([1]; first compound 1 µM) | relative viability ([1]; first compound 3.162 µM) | relative viability ([1]; first compound 10 µM) | relative viability ([1]; first compound 31.62 µM) | relative viability ([1]; first compound 100 µM) | relative viability ([2]; first compound 0.08 µM) | relative viability ([2]; first compound 0.253 µM) | relative viability ([2]; first compound 0.8 µM) | relative viability ([2]; first compound 2.53 µM) | relative viability ([3]; first compound 0.08 µM) | relative viability ([3]; first compound 0.253 µM) | relative viability ([3]; first compound 0.8 µM) | relative viability ([3]; first compound 2.53 µM) | relative viability (Bicalutamide + Olaparib; first compound 0.08 µM) | relative viability (Bicalutamide + Olaparib; first compound 0.253 µM) | relative viability (Bicalutamide + Olaparib; first compound 0.8 µM) | relative viability (Bicalutamide + Olaparib; first compound 2.53 µM)
HCC-78 | 0.457 | 0.603 | 0.575 | 0.629 | 0.547 | 0.355 | 0.362 | 0.37 | 0.319 | 0.947 | 0.708 | 0.962 | 0.939 | 0.709 | 0.651 | 0.889 | 0.766
IA-LM | 0.534 | 0.576 | 0.675 | 0.674 | 0.674 | 1.14 | 0.819 | 0.88 | 1.02 |  |  |  |  | 0.959 | 0.738 | 1.08 | 0.943
NCI-H441 | 0.533 | 0.656 | 0.543 | 0.507 | 0.518 | 0.917 |  | 0.598 | 0.61 | 0.311 | 0.281 | 0.284 | 0.272 | 0.639 | 0.609 | 0.626 | 0.481
NCI-H322M | 0.869 | 0.913 | 0.981 | 0.908 | 0.891 | 1.05 | 0.858 | 1.16 | 0.868 | 0.594 | 0.553 | 0.635 | 0.709 | 0.851 | 0.741 | 0.789 | 0.768
NCI-H1993 | 0.739 | 0.678 | 0.707 | 0.717 | 0.7 |  | 0.83 | 0.978 | 0.778 | 0.66 | 0.669 | 0.557 | 0.597 | 1.05 | 0.785 | 1.17 | 1.01
COR-L23 | 0.906 | 0.843 | 1 | 0.889 | 0.451 | 0.678 | 0.552 | 0.703 | 0.449 | 0.204 | 0.203 | 0.184 | 0.196 | 0.319 | 0.309 | 0.294 | 0.293
NCI-H2126 | 0.718 | 0.693 | 0.697 | 0.701 | 0.753 | 1.06 | 0.983 | 1.06 | 0.945 | 0.675 | 0.597 | 0.785 | 0.638 | 0.989 | 0.913 | 1.01 | 0.859
LC-2-ad | 0.825 | 0.93 | 0.869 | 0.842 | 0.909 | 0.495 | 0.427 | 0.462 | 0.482 | 0.268 | 0.256 | 0.275 | 0.267 | 0.758 | 0.713 | 0.683 | 0.697
NCI-H1915 | 1.12 | 1.15 | 1.09 | 1.09 | 1.1 | 0.873 | 0.815 | 0.969 | 0.889 | 0.509 | 0.516 | 0.481 | 0.48 | 0.25 | 0.232 | 0.29 | 0.254
NCI-H1793 | 0.706 | 0.8 | 1.16 | 0.844 | 1.06 |  |  |  |  | 0.914 |  | 1.07 | 0.907 | 0.799 |  | 1.38 | 0.744
NCI-H2085 | 0.984 | 1.04 | 0.864 | 0.876 | 0.639 | 0.904 | 0.822 | 0.816 | 0.745 | 0.837 | 0.708 | 0.912 | 0.775 | 0.758 | 0.865 | 0.773 | 0.781
ChaGo-K-1 |  |  |  |  |  | 1.27 | 1.1 | 1.16 | 1.03 | 0.256 | 0.252 | 0.251 | 0.247 | 0.4 | 0.423 | 0.466 | 0.446
NCI-H522 |  |  |  |  |  |  |  |  |  | 0.923 | 0.854 | 1.22 | 0.979 | 0.711 | 0.599 | 0.788 | 0.693
NCI-H1299 | 0.994 | 1.01 | 1.04 | 1.02 | 0.968 | 0.969 | 0.93 | 0.957 | 0.911 |  |  |  |  | 0.993 | 0.942 | 0.974 | 0.864
NCI-H1650 |  |  |  |  |  | 0.892 | 0.937 | 0.979 | 0.992 | 0.353 | 0.411 | 0.433 | 0.365 | 0.989 | 0.759 | 0.899 | 0.723
NCI-H1648 |  |  |  |  |  |  |  |  |  |  |  | 0.745 | 0.774 |  |  | 0.775 | 0.949
NCI-H2342 |  |  |  |  |  |  |  |  |  | 0.764 | 0.761 | 0.89 | 0.751 | 0.524 | 0.501 | 0.491 | 0.44
SW 900 |  |  |  |  |  |  |  |  |  | 0.444 | 0.47 | 0.562 | 0.467 | 0.798 | 0.721 | 1.21 | 0.803
NCI-H1395 | 1.36 | 1.29 | 1.09 | 1.2 | 1.17 |  |  |  |  | 0.89 | 0.766 | 0.965 | 0.709 | 0.449 | 0.483 | 0.466 | 0.429
A549 |  | 0.607 | 0.754 | 0.687 | 0.696 | 0.738 | 0.708 | 0.917 | 0.485 |  |  |  |  | 0.355 | 0.353 | 0.42 | 0.302
NCI-H2170 |  |  |  |  |  | 1.12 | 1.18 | 1.39 | 1.18 | 0.251 | 0.262 | 0.281 | 0.25 | 0.612 | 0.572 | 0.536 | 0.645
NCI-H727 | 0.307 | 0.495 | 0.296 | 0.291 | 0.283 | 0.928 | 0.85 | 0.936 | 0.781 |  |  |  |  | 0.895 | 0.678 | 0.614 | 0.732
NCI-H1563 | 1.19 | 1.42 | 1.16 | 1.23 | 1.07 | 0.863 | 0.861 | 0.794 | 0.743 | 0.871 | 0.69 | 0.919 | 0.697 |  |  |  | 
ABC-1 | 0.767 | 1.05 |  | 0.693 | 0.753 | 1.15 | 1.09 | 1.16 | 0.848 |  |  |  |  | 0.815 | 0.975 | 1.21 | 1.01
